Experimental data reported in patent US20080267914A1, “Chemical Compounds” (priority 2005, published 2008).

Columns and labels:
[1] = test system: HCV replicon cells Huh 9B; assay: HCV replicon luciferase assay; assay type: cell-based, hepatitis C virus; conditions: Huh 9B replicon cells, 72 h incubation, luciferase readout
Procedure: (§1) HCV replicon cells Huh 9B (ReBlikon), containing the firefly luciferase—ubiquitin—neomycin phosphotransferase fusion protein and EMCV-IRES driven HCV polyprotein with cell culture adaptive mutations.
(§2) Cells were cultured at 37° C. in a 5% CO2 environment and split twice a week on seeding at 2×10E6 cells/flask on day 1 and 1×10E6 3 days later. Some 0.25 mg/ml G418 was added to the culture medium (125 ul per 25 ml) but not the assay medium.
(§3) The culture medium consisted of DMEM with […] glucose and glutamax (Gibco 61965-026) supplemented with 1× non-essential amino acids, penicillin (100 IU/ml)/streptomycin (100 μg/ml), FCS (10%, 50 ml) and 1 mg/ml G418 (Invitrogen cat no 10131-027) & 10% foetal calf serum.
(§4) A flask of cells was trypsinised and a cell count carried out. Cells were diluted to 100,000 cells/ml and 100 μl of this used to seed one opaque white 96-well plate (for the replicon assay) and one flat-bottomed clear plate (for the tox assay) for every seven compounds to be tested for IC50. Wells G12 and H12 were left empty in the clear plate as the blank. Plates were then incubated at 37° C. in a 5% CO2 environment for 24 h.
(§5) On the following day compound dilutions are made up in medium at twice their desired final concentration in a clear round bottomed plate. All dilutions have a final DMSO concentration of 1%.
(§6) Once the dilution plate had been made up, controls and compounds were transferred to the assay plate (containing the cells) at 100 μl /well in duplicate plates.
(§7) Exception: in the white (replicon) plate, no compound was added to wells A1 and A2 and 100 μl of 1% DMSO was added to these instead. In the clear (Tox) plate, wells E12 & F12 only contained the DMSO control. Plates were then incubated at 37° C. with 5% CO2 for 72 h.
At the end of the incubation time, the cells in the white plate were harvested by washing with 200 μl/well of warn (37° C.) PBS and lysed with 20 μl cell culture lysis buffer (Promega). After 5 min incubation @ RT, luciferin solution was added to the luciferase assay buffer (LARB at 200 μl per 10 ml LARB. The M injector of the microplate luminometer (Lmax, Molecular Devices) was primed with […] injections. Plate were inserted into the luminometer and 100 μl luciferase assay reagent was added by the injector on the luminometer. The signal was measured using a 1 second delay followed by a 4 second measurement programme. The IC50, the concentration of the drug required for reducing the replicon level by 50% in relation to the untreated cell control value, can be calculated from the plot of the percentage reduction of the luciferase activity vs. drug concentration.

[2] = test system: HCV replicon cells Huh 9B; assay type: cell-based; conditions: Huh 9B replicon cells, 72 h incubation, methylene blue absorbance at 620 nm
Procedure: as §1, §2, §3, §4, §5, §6, §7
The clear plate was stained with 100 μl 0.5% methylene blue in 50% ethanol at RT for 1 h, followed by solvation of the absorbed methylene blue in 100 μl per well of 1% lauroylsarcosine. Absorbance of the plate was measured on a microplate spectrophotometer (Molecular Devices) and the absorbance for each concentration of compound expressed as a proportion of the relative DMSO control. The TD50, the concentration of drug required to reduce the total cell area by 50% relative to the DMSO controls can be calculated by plotting the absorbance at 620 nm vs drug concentration.

Row | Structure (SMILES) | IC50 ([1]; Hepatitis C virus) [µM] | Replicon TD5O [2] | IC50 [1] [µM]
1 | c1nc(Nc2ccc(N3CCOCC3)cc2)c2cc(-c3ccc(OCCN4CCOCC4)cc3)ccc2n1 [Example 1, {6-[4-(2-Morpholin-4-yl-ethoxy)-phenyl]-quinazolin-4-yl}-(4-morpholin-4-yl-phenyl)-amine] | < 5 | *** (>25 uM = ***) | –
2 | CCOc1ccc(-c2ccc3ncnc(Nc4ccc(N5CCOCC5)cc4)c3c2)cc1OCC [Example 4] | – | ** (>10 uM = **) | < 1
3 | COc1ccc(-c2ccc3ncnc(Nc4ccc(N5CCOCC5)cc4)c3c2)cc1OC [Example 3, [6-(3,4-Dimethoxy-phenyl)-quinazolin-4-yl]-(4-morpholin-4-yl-phenyl)-amine] | < 1 | ** (>10 uM = **) | –
4 | Fc1cc(-c2ccc3ncnc(Nc4ccc(N5CCOCC5)cc4)c3c2)ccc1OCCN1CCOCC1 [Example 5, {6-[3-Fluoro-4-(2-morpholin-4-yl-ethoxy)-phenyl]-quinazoline-4-yl}-(4-morpholin-4-yl-phenyl)-amine] | < 1 | *** (>25 uM = ***) | –
5 | c1nc(Nc2ccc(N3CCOCC3)cc2)c2cc(-c3ccc(OCCCN4CCOCC4)cc3)ccc2n1 [Example 2, (4-Morpholin-4-yl-phenyl)-{6-[4-(3-morpholin-4-yl-propoxy)-phenyl]-quinazolin-4-yl}-amine] | < 1 | ** (>10 uM = **) | –
